Measurements as given in PMC4436063 (mBio, 2015).
pKd: −log10 of the molar value.

Target: CheS3
Assay: microscale thermophoresis
Type: binding, Rhodospirillum centenum
Details: fluorescently labelled CheS3 (Blue-NHS, 100 nM); non-hydrolysable ATP analogue

pKd: 6.95
SMILES: Nc1ncnc2c1ncn2[C@@H]1O[C@H](COP(=O)(O)OP(=O)(O)OP(O)(O)=S)[C@@H](O)[C@H]1O [ATPγS]
